Source: patent US20240000772A1, “MICROSPHERE FORMULATIONS COMPRISING NALTREXONE AND METHODS FOR MAKING AND USING THE SAME” (Oakwood Laboratories, LLC, priority 2021, published 2024)
Values after ≈ are worked out from the molar mass of the structure shown. Structures can show the parent of a compound that is named as a salt. Where two headings read alike, the source gives them in different places.

Legend:
[1] = Solubility of naltrexone in solvents; format: physicochemical
From the text: (§1) In one aspect, the naltrexone is a free base.
In another aspect, the naltrexone is an HCl salt.

pKa of naltrexone = format: physicochemical
From the text: as §1

O=C1CC[C@@]2(O)[C@H]3Cc4ccc(O)c5c4[C@@]2(CCN3CC2CC2)[C@H]1O5 [naltrexone, Naltrexone]
solubility ([1]; benzyl alcohol, organic solvent or mixture, naltrexone free base, in BA, read-out: benzyl alcohol (BA) solubility): > 250 mg/mL | solubility ([1]; dichloromethane, organic solvent or mixture, naltrexone free base, in DCM, read-out: dichloromethane (DCM) solubility): 100 mg/mL (≈ 293 mM) | solubility ([1]; ethyl acetate, organic solvent or mixture, naltrexone free base, in EA, read-out: ethyl acetate (EA) solubility): 26 mg/mL (≈ 76.2 mM) | pKa (pKa of naltrexone): 8.4

O=C1CC[C@@]2(O)[C@H]3Cc4ccc(O)c5c4[C@@]2(CCN3CC2CC2)[C@H]1O5 [naltrexone HCl salt]
solubility ([1]; naltrexone HCl salt, in water, read-out: water solubility): ~100 mg/mL
